Data taken from patent US20240317762A1, “PHTHALAZINONE-BASED PARP-1 INHIBITORS” (Oregon Health & Science University, priority 2021, published 2024).
Several values for one entry are separate records, joined by “and”; a condition that tells them apart may be missing. Equal entries are not always repeated.

Legend:
PARP-1 = PARP-1 (Homo sapiens, UniProt P09874); test: in vitro fluorescence polarization DNA competition assay; conditions: 25 μM compound; PARP-1 40 nM; nicked dumbbell DNA probe 20 nM
Protocol: The full-length WT PARP-1 protein used in these assays was purified as described previously (30).
An unlabeled competitor was added and the decrease in fluorescence polarization was measured across time.

[1] = test system: Ewing sarcoma cell line EW-8; test: ES-8 viability screen (CellTiter-Glo); type: cell-based
Protocol: Cell viability was measured using the CellTiter-Glo (Promega, G7573) assay and read using an Envision (PerkinElmer) plate reader. Compound source plates (96-well) were prepared by solubilizing each drug in DMSO to a maximum concentration of 1-50 mM, then arraying samples in 10-point dose-response with 3-fold dilution. Positive and negative controls (staurosporine at 10 mM and DMSO, respectively) were added to the source plates. Drug was transferred from the source plate to the assay plate using a Biomek FX (Beckman Coulter) liquid handler equipped with a pin tool which transferred ˜100 nl into a final volume of 100 μl, resulting in ˜1000-fold dilution. At least two biological replicates (assay performed on different day with same drug plate and independent cell preparation) were obtained for each drug. To analyze the assay, the relative light unit signal in each well was first log 2 transformed, then normalized by subtracting the mean of the negative controls wells on each plate.
FIGS. 6A-6E. […] 0.1 μM ad-olaparib (chemical structure indicated in panel a) was added to the cells for 1 hour before undergoing a UV treatment for 5 minutes in cold PBS. Cells were lysed and sonicated in PBS (1% Triton X-100+1% SDS), clicked with TAMRA-azide and run out on SDS-PAGE. The gel was imaged for TAMRA and probed for PARP-1 (Bethyl Laboratories), and alpha-tubulin (X). FIGS. 6B, 6D) Quantification of western blot images. TAMRA or ADPr values are normalized to PARP-1 within each replicate and plotted as percentage compared to DMSO. Error bars indicate SEM (n=3-4). Statistical significance of off-rate calculated via multiple t-tests (p<0.05). […] Cells were subsequently treated with PARGi (10 μM) for 30 minutes, lysed using RIPA buffer, run out on SDS-PAGE, and probed for ADPr (Cell Signaling) and PARP-1 (Bethyl Laboratories). FIG. 6E) ES-8 cells were treated with indicated concentration of inhibitors for 72 hours before measuring cell viability using the CellTiter-Glo kit (Promega G7573). IC50 values were calculated using R statistical software.

Sequence of PARP-1 (P09874 whole entry): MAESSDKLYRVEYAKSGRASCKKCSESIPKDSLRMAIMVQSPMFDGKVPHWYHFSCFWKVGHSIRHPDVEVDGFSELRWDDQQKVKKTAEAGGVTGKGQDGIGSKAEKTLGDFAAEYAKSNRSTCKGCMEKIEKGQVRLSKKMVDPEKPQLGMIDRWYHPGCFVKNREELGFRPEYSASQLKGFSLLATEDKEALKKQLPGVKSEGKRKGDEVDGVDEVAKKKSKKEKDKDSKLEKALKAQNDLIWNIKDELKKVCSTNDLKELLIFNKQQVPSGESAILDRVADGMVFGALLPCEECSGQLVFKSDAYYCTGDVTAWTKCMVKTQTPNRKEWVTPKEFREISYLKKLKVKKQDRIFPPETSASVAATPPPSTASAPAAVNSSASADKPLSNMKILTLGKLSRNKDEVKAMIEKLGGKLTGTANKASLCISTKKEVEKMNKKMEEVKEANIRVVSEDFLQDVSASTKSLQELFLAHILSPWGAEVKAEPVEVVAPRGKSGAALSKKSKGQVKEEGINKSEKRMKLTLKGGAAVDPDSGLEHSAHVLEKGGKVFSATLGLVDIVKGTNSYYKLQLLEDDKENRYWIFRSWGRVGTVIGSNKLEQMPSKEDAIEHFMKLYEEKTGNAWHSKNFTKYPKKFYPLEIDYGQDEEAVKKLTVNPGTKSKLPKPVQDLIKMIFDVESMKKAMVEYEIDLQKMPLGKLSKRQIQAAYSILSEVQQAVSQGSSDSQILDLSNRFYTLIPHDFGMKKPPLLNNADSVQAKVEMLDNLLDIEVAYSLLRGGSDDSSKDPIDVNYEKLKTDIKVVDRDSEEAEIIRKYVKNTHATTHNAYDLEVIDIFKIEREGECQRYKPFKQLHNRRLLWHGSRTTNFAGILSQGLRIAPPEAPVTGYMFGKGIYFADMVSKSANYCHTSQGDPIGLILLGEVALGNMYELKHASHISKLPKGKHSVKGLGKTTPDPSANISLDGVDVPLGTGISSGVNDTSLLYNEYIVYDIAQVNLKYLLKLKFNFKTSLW

(S)-4-(difluoro(3-(6-methyl-3-(trifluoromethyl)-5,6,7,8-tetrahydro-[1,2,4]triazolo[4,3-a]pyrazine-7-carbonyl)phenyl)methyl)phthalazin-1(2H)-one [AZ0108]
exchange of the PARP-1:labled DNA complex with an unlabeled DNA competitor (PARP-1): substantially reduced | Fold Difference to Pip6 ([1]; ratio of EC50 values): 86 | EC50 ([1]; viability, 72 h): 20 nM and 20.9 nM
